Reference: PMC8480782, “Efficient Dimerization Disruption of Leishmania infantum Trypanothione Reductase by Triazole-phenyl-thiazoles” (Journal of Medicinal Chemistry, 2021)
Values joined by “and” are separate entries in the source; they are usually repeats but may differ in a detail not shown here. Equal entries are not always repeated. “Also recorded” adds a separate entry of the source. Where two headings read alike, the source gives them in different places.

Assays:
LiTryR = biological target: T1, LiTryR (Leishmania infantum, UniProt A4HSF7); experiment: Time-dependent inhibition kinetics of LiTryR (modified DTNB-coupled assay); format: biochemical; conditions: for α* (overall two-step process): fit to eq 4; for mechanism of LiTryR inhibition: reaction progress curves / kinetic analysis; for α (initial EI complex): fit to eq 3
T1 construct: HIS (N); made in house; host or cells: E. coli BL21 (DE3) Rossetta
T1 sequence (A4HSF7 1-491): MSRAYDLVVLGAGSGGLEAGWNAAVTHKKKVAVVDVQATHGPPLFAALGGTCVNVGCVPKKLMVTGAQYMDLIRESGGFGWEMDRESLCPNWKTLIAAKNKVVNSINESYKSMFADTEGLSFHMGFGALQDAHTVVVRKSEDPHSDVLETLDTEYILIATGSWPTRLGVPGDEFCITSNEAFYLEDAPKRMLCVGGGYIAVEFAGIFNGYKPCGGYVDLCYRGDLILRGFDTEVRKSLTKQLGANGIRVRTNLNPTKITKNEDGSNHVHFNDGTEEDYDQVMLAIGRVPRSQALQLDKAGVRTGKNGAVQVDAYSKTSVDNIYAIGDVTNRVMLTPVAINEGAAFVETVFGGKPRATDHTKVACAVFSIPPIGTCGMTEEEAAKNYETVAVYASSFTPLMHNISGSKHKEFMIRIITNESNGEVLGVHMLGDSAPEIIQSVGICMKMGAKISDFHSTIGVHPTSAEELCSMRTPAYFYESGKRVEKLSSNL
Method: The inhibitory constants Ki and Ki* for 19a were calculated following a slightly modified version of the standard DTNB-coupled assay.[52] TS2 was serially diluted (sixfold dilution from 1666 to 52 μM) in a buffer containing 40 mM HEPES (pH 7.5) and 1 mM EDTA. The different TS2 solutions were dispensed (15 μL) in a 96-well microplate. 19a was serially diluted in DMSO (sixfold dilution from 1875 to 445 μM). […] These mixtures (180 μL) were subsequently added to the appropriate wells previously filled with different TS2 solutions. The assay was initiated by addition of 55 μL of buffer containing 40 mM HEPES (pH 7.5), 1 mM EDTA, 272.73 μM NADP^+, 0.01% glycerol, and 3.5 nM recombinant LiTryR using an automated dispensing system (PerkinElmer, Waltham, MA). The order of addition was essential to avoid enzyme preincubation with the inhibitor or the substrates. […] TryR oxidoreductase activity was monitored at 26 °C by an increase in absorbance at 412 nm in an EnSpire Multimode Plate Reader (PerkinElmer, Waltham, MA). Coupling an automated dispenser module to the spectrophotometer enabled real-time detection of the enzymatic reaction, which was crucial for high-quality nonlinear fits of the experimental data and, especially, to estimate the initial velocity of the progress curves in the presence of 19a. To guarantee linearity of the enzyme reaction in the absence of an inhibitor, the analysis was performed with data obtained during the first 20 000 s to avoid TS2 depletion. […] All of the assays were conducted in three independent experiments.
kobs values were estimated for every 19a concentration at all TS2 concentrations by fitting the values of the TNB concentration produced during each enzymatic reaction to eq 1.[42b],[53] [drawing 2] 1 where vi and vs are the initial and the steady-state velocities, respectively, kobs is the apparent first-order rate constant for the conversion of vi into the steady-state velocity (vs), and d is a parameter that indicates the displacement of the curve on the vertical ordinate and takes into account any nonzero value of the measured signal at time zero caused by some of the reagents. The apparent inhibition constants (Ki^app and Ki*^app) for each TS2 concentration were determined by fitting the kobs values obtained at different 19a concentrations to eq 2 [drawing 3] 2 where Ki^app is the apparent value of the Ki for the initial encounter complex (EI) and Ki*^app is the apparent value of the overall inhibition constant Ki* to form a higher-affinity complex (E*I). k6 is the first-order rate constant that defines the reverse isomerization step that returns E*I to EI.[42a],[53]
The Ki value for the formation of the EI complex was determined by fitting the Ki^app values obtained at different TS2 concentrations to eq 3. In addition, this graph was used to assess the inhibition modality of 19a during the first equilibrium of its two-step binding mechanism. […] In addition, this graph was used to assess the overall inhibition modality of 19a during its two-step binding mechanism. As explained above, the value obtained for α defines the mode of inhibition.[42a] [drawing 5] 4
Figure S1. […]
Lineweaver–Burk plots of reciprocal initial velocities ( vi) versus reciprocals of four TS2

[1] = test system: L. infantum promastigotes; experiment: Leishmanicidal activity on promastigotes (PI exclusion, flow cytometry); format: cell-based, Leishmania infantum; conditions: for SIp (ratio of EC50 against human cells to EC50 against promastigotes): HepG2 / promastigotes; for EC50: Leishmania infantum
How it was run: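 Log-phase L. infantum promastigotes (MCAN/ES/89/IPZ229/1/89) at 2 × 10^6 parasites/mL in RPMI-1640 with 10% FCS, pH 7.2, were drug-treated for 24 h at 26 °C. Viability was scored by flow cytometric propidium iodide exclusion, and EC50 was derived by nonlinear regression.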

[2] = test system: L. infantum intracellular amastigotes; experiment: Leishmanicidal activity in amastigote-infected THP-1 monocyte-derived macrophages; format: cell-based, Leishmania infantum
Method: THP-1 monocytes were seeded in a 48-well plate at a concentration of 5 × 10^5 cells/mL (250 μL/well) in RPMI complete medium supplemented with phorbol 12-myristate 13-acetate (PMA) (100 ng/mL). Differentiation of THP-1 monocytes to macrophages was allowed for 24 h at 37 °C and 5% CO2. THP-1-derived macrophages were infected with GFP-expressing axenic amastigotes at 5 × 10^6 parasites/mL in RPMI complete medium for 24 h (250 μL/well). Extracellular amastigotes were washed twice with PBS. The remaining extracellular parasites were challenged for 24 h with THP-1 medium supplemented with 10% horse serum (Gibco) instead of FCS. Cells were washed twice with PBS, and treatments were performed in 250 μL of fresh RPMI medium supplemented with 10% horse serum for 72 h at 37 °C and 5% CO2. Afterward, treatments were removed by two PBS washes. Lysis of infected cells was performed with 120 μL of SDS 0.005% (w/v) in PBS. After a 30 min incubation at 37 °C, lysis was stopped by adding RPMI complete medium with PI at 20 μg/mL (120 μL/well). The lysates were transferred to a 96-well plate (200 μL/well), and the GFP^+ amastigotes extracted from the infected cells were acquired by a Beckman Coulter FC500 flow cytometer. Each sample (100 μL) was acquired for 20 s.
The relative number of GFP^+ intracellular amastigotes per cell in each sample was estimated after the division of the total number of GFP+ amastigotes by the LDH activity value of the sample. Results were normalized to the vehicle-treated controls. EC50 values of intracellular amastigotes were calculated using a nonlinear regression model with GraFit 6 software (Erithacus, Horley, Surrey, U.K.). All of the assays were conducted in at least three independent experiments.

[3] = fit of Ki*^app to eq 4, read-out: Ki* (overall two-step process)
[4] = two-step mechanism, fit of Ki^app to eq 3, read-out: Ki (initial EI complex)
[5] = 24 h at 26 °C, read-out: EC50 promastigotes
[6] = promastigotes or amastigotes (either form), read-out: EC50 against Leishmania promastigotes or amastigotes
[7] = Leishmania infantum, THP-1, 72 h, read-out: EC50 intracellular amastigotes, amastigote-infected THP-1 macrophages, 72 h
[8] = Leishmania infantum, THP-1, 72 h, amastigote-infected THP-1 macrophages, 72 h, read-out: EC50 intracellular amastigotes

SMILES: NCCCCc1cn(-c2ccc(-c3nc(CCc4ccc5ccccc5c4)cs3)c(OCCN3CCNC3=O)c2)nn1.O=C(O)C(F)(F)F [12b, 1-(2-(5-(4-(4-Ammoniumbutyl)-1H-1,2,3-triazol-1-yl)-2-(4-(2-(naphthalen-2-yl)ethyl)thiazol-2-yl)phenoxy)ethyl)imidazolidin-2-one 2,2,2-Trifluoroacetate]
- Ki (LiTryR; [3]): 2.6 ± 0.6 µM
- α* (overall two-step process) (LiTryR): 1.3 ± 0.6
- mechanism of LiTryR inhibition (LiTryR): slow-binding inhibitors; also recorded: two-step process of enzyme isomerization
- Ki (LiTryR; [4]): 10 ± 2.7 µM
- α (initial EI complex) (LiTryR; two-step mechanism): 2.0 ± 1.3
- SIp (ratio of EC50 against human cells to EC50 against promastigotes) [1]: 4.0
- EC50 [1, 5]: 8.4 ± 0.3 µM
- EC50 [1, 6]: < 10 µM
- EC50 [2, 7]: > 75 µM

SMILES: NCCCc1cn(-c2ccc(-c3nc(CCc4ccc(-c5ccccc5)cc4)cs3)c(OCCN3CCNC3=O)c2)nn1.O=C(O)C(F)(F)F [12i]
- SIp (ratio of EC50 against human cells to EC50 against promastigotes) [1]: 10.4
- EC50 [1, 5]: 5.8 ± 0.7 µM
- EC50 [2, 8]: 54.5 µM
- EC50 ([2]; amastigote-infected THP-1 macrophages, 72 h, read-out: EC50 intracellular amastigotes): 54.4 ± 15.5 µM

SMILES: NCCCCc1cn(-c2ccc(-c3nc(-c4ccccc4)cs3)c(OCCN3CCNC3=O)c2)nn1.O=C(O)C(F)(F)F [12n]
- EC50 [1, 5]: 5.4 ± 0.08 µM
- EC50 [1, 6]: < 10 µM

SMILES: NCCCCc1cn(-c2ccc(-c3nc(CCc4ccc5c(c4)CCCN5)cs3)c(OCCN3CCNC3=O)c2)nn1.O=C(O)C(F)(F)F.O=C(O)C(F)(F)F [12q]
- mechanism of LiTryR inhibition (LiTryR): single-step binding mechanism
- α, reversible single-step mechanism of time-dependent inhibition (LiTryR; single-step mechanism (Scheme S4)): 0.3 ± 0.2
- Ki (LiTryR; single-step mechanism (Scheme S4), read-out: Ki, reversible single-step mechanism of time-dependent inhibition): 13.6 ± 5.1 µM
- EC50 [2, 8]: > 75 µM

SMILES: NCCCCc1cn(-c2ccc(-c3nc(CCc4ccc5c(c4)CCO5)cs3)c(OCCN3CCNC3=O)c2)nn1.O=C(O)C(F)(F)F [12r]
- mechanism of LiTryR inhibition (LiTryR): slow-binding inhibitors
- SIp (ratio of EC50 against human cells to EC50 against promastigotes) [1]: 1.2
- EC50 [1, 5]: 23.8 ± 0.5 µM

SMILES: NCCCCc1cn(-c2ccc(-c3nc(CCc4ccc5oc6ccccc6c5c4)cs3)c(OCCN3CCNC3=O)c2)nn1.O=C(O)C(F)(F)F [12s]
- mechanism of LiTryR inhibition (LiTryR): slow-binding inhibitors

SMILES: NCCCCc1cn(-c2ccc(-c3nc(-c4ccccc4)c(-c4ccccc4)s3)c(OCCN3CCNC3=O)c2)nn1.O=C(O)C(F)(F)F [19a, 1-(2-(5-(4-(4-Ammoniobutyl)-1H-1,2,3-triazol-1-yl)-2-(4,5-diphenylthiazol-2-yl)phenoxy)ethyl)imidazolidin-2-one 2,2,2-Trifluoroacetate]
- β, noncompetitive hyperbolic inhibition mechanism (LiTryR; DTNB-coupled assay, initial velocities, alpha value of 1): 0.5 ± 0.1
- Ki (LiTryR; DTNB-coupled assay, initial velocities, alpha value of 1, read-out: Ki, noncompetitive hyperbolic inhibition mechanism): 12.7 ± 3.5 µM
- Ki (LiTryR; [TS2] 3.1 μM, read-out: Ki*^app): 0.6 ± 0.1 µM
- Ki (LiTryR; [TS2] 3.1 μM, read-out: Ki^app): 8.9 ± 3.1 µM
- Ki (LiTryR; [TS2] 6.2 μM, read-out: Ki*^app): 0.5 ± 0.1 µM
- Ki (LiTryR; [TS2] 6.2 μM, read-out: Ki^app): 7.2 ± 1.7 µM
- Ki (LiTryR; [TS2] 12.5 μM, read-out: Ki*^app): 0.5 ± 0.2 µM
- Ki (LiTryR; [TS2] 12.5 μM, read-out: Ki^app): 5.2 ± 2.6 µM
- Ki (LiTryR; [TS2] 25 μM, read-out: Ki*^app): 0.8 ± 0.2 µM
- Ki (LiTryR; [TS2] 25 μM, read-out: Ki^app): 8.3 ± 3 µM
- Ki (LiTryR; [TS2] 50 μM, read-out: Ki*^app): 1.4 ± 0.3 µM
- Ki (LiTryR; [TS2] 50 μM, read-out: Ki^app): 9.3 ± 3.2 µM
- Ki (LiTryR; [TS2] 100 μM, read-out: Ki*^app): 1.3 ± 0.6 µM
- Ki (LiTryR; [TS2] 100 μM, read-out: Ki^app): 5 ± 2.7 µM
- Ki (LiTryR; [3]): 0.5 ± 0.1 µM
- α* (overall two-step process) (LiTryR): 5.5 ± 2.9
- k6, value selected as conservative upper value (LiTryR; fixed for fitting to eq 2): ≤ 3 × 10^–5 s^–1
- mechanism of LiTryR inhibition (LiTryR): slow-binding inhibitors; also recorded: nonlinear noncompetitive hyperbolic inhibition mechanism
- Ki (LiTryR; [4]): 7.8 ± 1.7 µM
- α (initial EI complex) (LiTryR; two-step mechanism): 0.8 ± 0.4
- SIp (ratio of EC50 against human cells to EC50 against promastigotes) [1]: 2.5
- EC50 [1, 5]: 10.7 ± 1.3 µM

SMILES: NCCCCc1cn(-c2ccc(-c3nc(-c4ccc(Oc5ccccc5)cc4)c(-c4ccccc4)s3)c(OCCN3CCNC3=O)c2)nn1.O=C(O)C(F)(F)F [19c, 1-(2-(5-(4-(4-Ammoniobutyl)-1H-1,2,3-triazol-1-yl)-2-(4-([4-phenyloxyphenyl]-1-yl)-5-phenylthiazol-2-yl)phenoxy)ethyl)imidazolidin-2-one 2,2,2-Trifluoroacetate]
- EC50 [2, 7]: > 75 µM

SMILES: NCCNCc1nccn1-c1ccc(-c2nc(CCc3ccc4ccccc4c3)cs2)c(OCCN2CCNC2=O)c1 [compound 2, reference compound]
- SIp (ratio of EC50 against human cells to EC50 against promastigotes) [1]: 2.1/2.1
- EC50 [1, 5]: 12.8 ± 0.7 µM
- EC50 [2, 8]: > 75 µM

SMILES: NCCNCc1nccn1-c1ccc(-c2nc(CCc3ccc(-c4ccccc4)cc3)cs2)c(OCCN2CCNC2=O)c1 [compound 3, reference compound]
- SIp (ratio of EC50 against human cells to EC50 against promastigotes) [1]: 2.7 and 2.7/2.7
- EC50 [1, 5]: 5.3 ± 0.3 µM
- EC50 [2, 8]: > 75 µM

SMILES: NCCCCc1cn(-c2ccc(-c3nc(-c4cccc(-c5csc(-c6ccc(-n7cc(CCCCN)nn7)cc6OCCN6CCNC6=O)n5)c4)cs3)c(OCCN3CCNC3=O)c2)nn1.O=C(O)C(F)(F)F.O=C(O)C(F)(F)F [compound 22, 1,1′-((((1,3-Phenylenebis(thiazole-4,2-diyl))bis(5-(4-(4-ammoniobutyl)-1H-1,2,3-triazol-1-yl)-2,1-phenylene))bis(oxy))bis(ethane-2,1-diyl))bis(imidazolidin-2-one)bis(2,2,2-trifluoroacetate)]
- SIp (ratio of EC50 against human cells to EC50 against promastigotes) [1]: 8.0
- EC50 [1, 5]: 3.8 ± 0.1 µM
- EC50 [2, 7]: 22 µM
- SI (intracellular amastigotes) ([2]; THP-1 / intracellular amastigotes): 2.2
- EC50 ([2]; read-out: EC50 intracellular amastigotes, amastigote-infected THP-1 macrophages, 72 h): 22.2 ± 6.4 µM
